# Results reported in patent publication US5576310A, “11-benzaldoxime-17β-methoxy-17α-methoxymethyl-estrasdiene derivatives, methods for their production and pharmaceuticals containing such compounds” (Jenapharm GmbH, priority 1994, dated 1996).
# Tests used:
# glucocorticoid receptor = target: T1, glucocorticoid receptor (Rattus norvegicus, UniProt P06536); experiment: Receptor bonding affinity: competitive bonding of 3H-dexamethasone and test compound to glucocorticoid receptor in thymus cytosol of the adrenalectomized rat; assay type: binding; settings: dexamethasone = 100%; tracer 3H-dexamethasone 20 nM; 18 hours at 0-4 °C; quotient of IC50 values x 100%
# T1 construct: receptors in the cytosol from animal target organs; from tissue; host or cells: thymus cytosol of adrenalectomized rat
# T1 sequence (P06536 1-795): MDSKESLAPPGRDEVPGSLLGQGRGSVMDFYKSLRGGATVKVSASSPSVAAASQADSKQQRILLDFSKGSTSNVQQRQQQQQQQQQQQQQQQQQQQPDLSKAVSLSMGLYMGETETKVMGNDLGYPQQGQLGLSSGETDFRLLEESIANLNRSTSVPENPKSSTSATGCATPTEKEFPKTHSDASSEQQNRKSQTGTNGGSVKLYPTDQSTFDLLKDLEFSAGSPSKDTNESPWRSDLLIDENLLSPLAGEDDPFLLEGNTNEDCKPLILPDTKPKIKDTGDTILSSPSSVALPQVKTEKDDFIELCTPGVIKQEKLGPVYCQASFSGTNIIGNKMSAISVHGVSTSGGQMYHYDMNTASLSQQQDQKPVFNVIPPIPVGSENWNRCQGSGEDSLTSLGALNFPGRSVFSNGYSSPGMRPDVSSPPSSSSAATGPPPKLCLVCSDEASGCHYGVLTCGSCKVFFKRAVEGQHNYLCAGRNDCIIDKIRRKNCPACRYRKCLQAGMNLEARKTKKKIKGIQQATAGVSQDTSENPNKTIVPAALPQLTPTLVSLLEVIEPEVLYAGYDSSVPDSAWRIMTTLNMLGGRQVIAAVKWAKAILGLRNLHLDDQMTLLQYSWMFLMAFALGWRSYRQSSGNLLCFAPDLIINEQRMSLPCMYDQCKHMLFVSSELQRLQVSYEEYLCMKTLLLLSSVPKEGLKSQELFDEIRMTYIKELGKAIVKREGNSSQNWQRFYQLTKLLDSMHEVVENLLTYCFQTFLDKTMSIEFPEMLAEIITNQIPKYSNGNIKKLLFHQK
# Description: Measurement of bonding affinity for receptors
# Receptor bonding affinity was determined by competitive bonding of a specifically binding ^3 H labelled hormone (tracer) and the compound to be tested to receptors in the cytosol from animal target organs. It was tried to obtain receptor saturation and a balanced reaction. The following incubation conditions were selected:
# Glucocorticoid receptor: thymus cytosol of the adrenalectomized rat, thymi kept at -30° C., buffer: TED. Tracer: ^3 H-dexamethasone, 20 nM; reference substance: dexamethasone.
# After an incubation period of 18 hours at 0°-4° C., bonded and free steroid was separated by mixing in active carbon/dextrane (1%/0.1%), centrifuging off and measuring the bonded ^3 H activity in the supernatant.
# The IC50 for the compound to be tested and for the reference substance were determined from measurements in series of concentrations.
# [1] = test system: early gravidity in the rat; experiment: Inhibition of early gravidity (early abortive effect) in the rat after subcutaneous application from the 5th to 7th day of pregnancy; assay type: in vivo; settings: for complete gravidity inhibition (N*/N) / complete gravidity inhibition (%) / ED 50 (complete gravidity inhibition): d5-d7; for complete gravidity inhibition (N*/N): N* females not pregnant / N inseminated females; for complete gravidity inhibition (N*/N) / complete gravidity inhibition (%): empty uteri; for ED 50 (complete gravidity inhibition): s.c., graphic determination
# Description: Early abortive effect of RU 486 and J 914 (Example 1) and
# J 900 (Example 2) in the rat after subcutaneous
# application from the 5th to 7th day of pregnancy (dose
# 0.2 ml/animal/day in benzylbenzoate/castor oil
# N number of inseminated females
# N* number of females not pregnant
# ^++ graphic determination
# Inhibition of early gravidity in the rat:
# Female rats are mated in the pro-oestrus. If semen is found in the vaginal smear on the next day, this day is counted as day 1 (=d1) of the gravidity. Treatment with the test substance or vehicle is applied on d5-d7, autopsy is carried out on d9. The substances are injected subcutaneously in 0.2 ml of vehicle (benzyl benzoate/castor oil 1+4).
Structure (SMILES),Relative molar bonding affinity (RBA) for the glucocorticoid receptor (glucocorticoid receptor),complete gravidity inhibition (N*/N) ([1]; 0.3 mg/animal/day s.c.),complete gravidity inhibition (%) ([1]; 0.3 mg/animal/day s.c.),complete gravidity inhibition (N*/N) ([1]; 1.0 mg/animal/day s.c.),complete gravidity inhibition (%) ([1]; 1.0 mg/animal/day s.c.),complete gravidity inhibition (N*/N) ([1]; 3.0 mg/animal/day s.c.),complete gravidity inhibition (%) ([1]; 3.0 mg/animal/day s.c.),ED 50 (complete gravidity inhibition) [1],complete gravidity inhibition (N*/N) ([1]; 0.1 mg/animal/day s.c.),complete gravidity inhibition (%) ([1]; 0.1 mg/animal/day s.c.),"inhibition capability of nidation, in words ([1]; as compared to RU 486)"
"CC#C[C@]1(O)CC[C@H]2[C@@H]3CCC4=CC(=O)CCC4=C3[C@@H](c3ccc(N(C)C)cc3)C[C@@]21C [RU 486, reference compound]",685%,0/5,0%,2/5,40%,5/5,100%,1.1 mg/animal/day,–,–,–
"COC[C@]1(OC)CC[C@H]2[C@@H]3CCC4=CC(=O)CCC4=C3[C@@H](c3ccc(C=NOC(C)=O)cc3)C[C@@]21C [Example 1, 11β-[4-(acetyloximinomethyl)phenyl]-17β-methoxy-17α-methoxymethyl-estra-4,9-diene-3-on]",73%,1/5,20%,7/10,70%,5/5,100%,0.6 mg/animal/day,0/6,0%,–
"CN(C)c1ccc([C@H]2C[C@]3(C)[C@@H](CC[C@]3(O)CCCO)[C@@H]3CCC4=CC(=O)CCC4=C32)cc1 [ZK 98299, reference compound]",39%,–,–,–,–,–,–,–,–,–,–
"CCOC(=O)ON=Cc1ccc([C@H]2C[C@@]3(C)[C@@H](CC[C@]3(COC)OC)[C@@H]3CCC4=CC(=O)CCC4=C32)cc1 [Example 2, 11β-[4-(ethoxycarbonyloximinomethyl)phenyl]-17β-methoxy-17α-methoxymethyl-estra-4,9-diene-3-on]",66%,0/5,0%,9/10,90%,–,–,0.6 mg/animal/day,–,–,superior inhibition capability of nidation
